The values that follow come from paper PMC3466212, “Novel AChE Inhibitors for Sustainable Insecticide Resistance Management” (PLoS ONE, 2012).

The structures appear in SMILES notation. pIC50: −log10 of the molar value.

One series addresses T1, G119S AChE1 (Culex pipiens, UniProt Q86GC8, G247S).
T1 construct: made in house; host or cells: Drosophila S2 cells
Briefly: biochemical. In kind it is biochemical. The following applies: recombinant OP-insensitive G119S C. pipiens AChE1; 15 min incubation; acetylthiocholine; read-out: IC50 G119S. How it is done:
Production of C. pipiens WT and mutated AChE1s in Drosophila S2 cells was already described. The chemical library (ChemBridge, 3,000 compounds) screening was performed in duplicate on G119S recombinant AChE1. Chemicals were made soluble in ethanol or dimethylsulphoxide (DMSO), and then diluted at 300 µM in ethanol for storage. […] PTF analogs were analyzed in dose-response experiments (10-fold serial dilutions from 3 mM to 30 nM), using recombinant WT and G119S AChE1 or mosquito head extracts (heads cut from frozen mosquitoes, homogenized in 400 µl PB containing 1% Triton X-100 and cleared by centrifugation at 9,000×g for 3 min). Depending on compound availability, two to five replicates were performed with distinct batches of enzyme. […] IC50 was estimated by nonlinear least square regression. IC50 was also measured on AChE1 from susceptible and resistant mosquito larvae extracts.

The target in the next series is WT AChE1 (Culex pipiens, UniProt Q86GC8). Briefly: AChE assay (Ellman), dose-response on recombinant WT AChE1. In kind it is biochemical. The arrangement: made in house; host or cells: Drosophila S2 cells. The following applies: recombinant wild-type C. pipiens AChE1; 15 min incubation; acetylthiocholine; read-out: IC50 WT. How it is done:
Production of C. pipiens WT and mutated AChE1s in Drosophila S2 cells was already described. The chemical library (ChemBridge, 3,000 compounds) screening was performed in duplicate on G119S recombinant AChE1. Chemicals were made soluble in ethanol or dimethylsulphoxide (DMSO), and then diluted at 300 µM in ethanol for storage. Compounds (30 µM final concentration) were incubated for 15 min at room temperature with 100 µl of G119S recombinant AChE1 then 100 µl of substrate (acetylthiocholine, 1.6 mM, Sigma-Aldrich) was added and the residual activity was quantified by measuring the optical density at 412 nm, as described by Ellman et al.. PTF analogs were analyzed in dose-response experiments (10-fold serial dilutions from 3 mM to 30 nM), using recombinant WT and G119S AChE1 or mosquito head extracts (heads cut from frozen mosquitoes, homogenized in 400 µl PB containing 1% Triton X-100 and cleared by centrifugation at 9,000×g for 3 min). Depending on compound availability, two to five replicates were performed with distinct batches of enzyme. […] IC50 was estimated by nonlinear least square regression. IC50 was also measured on AChE1 from susceptible and resistant mosquito larvae extracts.

Series [1] has as its system C. pipiens Slab strain larvae. Briefly: Larval bioassay, Slab strain (OP-susceptible). The following applies: fourth-instar larvae, 24 hours exposure, 300 µM. The source says: Three C. pipiens strains were used: the susceptible reference Slab strain, homozygous for ace-1 ^S [39], the resistant reference SR strain, carrying the genetical background of Slab but homozygous for the G119S mutation, allele ace-1 ^R [21] and the Ducos strain, carrying the genetical background of Slab but homozygous for an ace-1 duplication, with one ace-1^S and ace-1^R copy in tandem. Culex pipiens heterozygous larvae (Slab×SR) were obtained by crossing Slab males and SR females. Two A. gambiae reference strains (S molecular form) were used: the susceptible strain Kisumu, homozygous for ace-1 ^S, collected in Kenya in 1953 and maintained since then under laboratory conditions and the resistant Acerkis strain, carrying the genetical background of Kisumu but homozygous for an ace-1^R allele from a population collected in Bobo-Dioulasso, Burkina Faso [41].
Insecticidal activity was determined by performing bioassays on fourth-instar larvae as described in [42]. Each compound was dissolved in ethanol. Propoxur (CX) and chlorpyrifos (OP) were used as references. For each compound, we first tested mortality after a 24-hour exposure at 300 µM. […] Mortality data were analyzed by the log-probit program. This program takes into account natural mortality and provides lethal doses (LD) and slopes for each mortality line; it also computes resistance ratios (RR) for each LD, with 95% confidence intervals.

In series [2] the test system is C. pipiens SR strain larvae. In words: Larval bioassay, SR strain (OP-resistant). The following applies: fourth-instar larvae, 24 hours exposure, 300 µM. From the text:
Three C. pipiens strains were used: the susceptible reference Slab strain, homozygous for ace-1 ^S [39], the resistant reference SR strain, carrying the genetical background of Slab but homozygous for the G119S mutation, allele ace-1 ^R [21] and the Ducos strain, carrying the genetical background of Slab but homozygous for an ace-1 duplication, with one ace-1^S and ace-1^R copy in tandem. Culex pipiens heterozygous larvae (Slab×SR) were obtained by crossing Slab males and SR females.
Insecticidal activity was determined by performing bioassays on fourth-instar larvae as described in [42]. Each compound was dissolved in ethanol. Propoxur (CX) and chlorpyrifos (OP) were used as references. For each compound, we first tested mortality after a 24-hour exposure at 300 µM. […] Mortality data were analyzed by the log-probit program.

For the compound `COc1ccc(N2C(=O)C(=Cc3ccc(C)o3)C(=O)NC2=S)c(OC)c1` [PTF-30], the pIC50 (in general, the negative decadic logarithm of the IC50, by convention in mol/L) is 5.89 at G119S AChE1 and 5.55 on WT AChE1. Moreover, the “Mortality at 300 µM, Slab” value in series [1] worked out at 25%. For the same compound, in series [2], the “Mortality at 300 µM, SR” value stood at 25%.
`Cc1ccc(C=C2C(=O)NC(=S)N(c3ccc(C(=O)O)cc3)C2=O)o1` [PTF-31]: the figures for the pIC50 at G119S AChE1 and on WT AChE1 were 6.70 and 6.30, respectively. Moreover, the “Mortality at 300 µM, Slab” value in series [1] amounted to 20%. The “Mortality at 300 µM, SR” value in series [2] is 20%.
Consider `Cc1ccc(C=C2C(=O)NC(=S)N(CC3CCCO3)C2=O)o1` (stereo not drawn) [PTF-32], for which the negative-log IC50 (pIC50) at G119S AChE1 is 5.64; on WT AChE1, 5.68. Also, the “Mortality at 300 µM, Slab” value in series [1] stood at 0%. Further, in series [2], the “Mortality at 300 µM, SR” value turned out to be 0%.
`Cc1ccc(C=C2C(=O)NC(=S)N(c3ccc(F)cc3)C2=O)o1` [PTF-33]: the pIC50 on G119S AChE1 is 4.66; at WT AChE1 it was 3.31. For the same compound, the “Mortality at 300 µM, Slab” value in series [1] turned out to be 16%. For the same compound, in series [2], the “Mortality at 300 µM, SR” value turned out to be 77%.
The matching figures for `Cc1ccc(C=C2C(=O)NC(=S)N(CCc3ccc(F)cc3)C2=O)o1` [PTF-34]: 4.42, 4.62, 0% and 0%.
The corresponding values for `Cc1ccc(C=C2C(=O)NC(=S)N(c3ccc(Cl)cc3)C2=O)o1` [PTF-35] are 5.06, 5.06, 5% and 49%.
The corresponding values for `Cc1ccc(C=C2C(=O)NC(=S)N(c3cccc(Cl)c3)C2=O)o1` [PTF-36] are 5.10, 4.93, 30% and 40%.
With `Cc1ccc(C=C2C(=O)NC(=S)N(c3ccc(Br)cc3)C2=O)o1` [PTF-37], the pIC50 on G119S AChE1 was 3.85; at WT AChE1, 2.67. Moreover, the “Mortality at 300 µM, Slab” value in series [1] is given as 0%. Moreover, the “Mortality at 300 µM, SR” value in series [2] came to 35%.
As for `CN1C(=O)C(=Cc2ccco2)C(=O)N(C)C1=O` [PTF-38], the results for the pIC50 on G119S AChE1 and at WT AChE1 were 3.45 and 2.92, respectively. In addition, the “Mortality at 300 µM, Slab” value in series [1] is reported as 70%. Also, the “Mortality at 300 µM, SR” value in series [2] turned out to be 90%.
The matching figures for `CN1C(=O)C(=Cc2ccc([N+](=O)[O-])o2)C(=O)N(C)C1=O` [PTF-40]: 4.26, 4.08, 0% and 0%.
Consider `CN1C(=O)C(=Cc2ccc(N(C)C)o2)C(=O)N(C)C1=O` [PTF-41], for which the pIC50 at G119S AChE1 was 3.88; on WT AChE1, 3.76. In series [1], the “Mortality at 300 µM, Slab” value is 20%. Also, the “Mortality at 300 µM, SR” value in series [2] is listed as 20%.
Consider `CCN(CC)c1ccc(C=C2C(=O)N(C)C(=O)N(C)C2=O)o1` [PTF-42], for which the results for the pIC50 on G119S AChE1 and on WT AChE1 were 2.99 and 3.14, respectively. Moreover, in series [1], the “Mortality at 300 µM, Slab” value is reported as 0%. Besides, the “Mortality at 300 µM, SR” value in series [2] amounted to 0%.
With `CN1C(=O)C(=Cc2ccc(-c3ccccc3C(=O)O)o2)C(=O)N(C)C1=O` [PTF-43], the pIC50 on G119S AChE1 was 5.08; on WT AChE1, 5.17. For the same compound, the “Mortality at 300 µM, Slab” value in series [1] worked out at 0%. Moreover, the “Mortality at 300 µM, SR” value in series [2] worked out at 0%.
As for `CN1C(=O)C(=Cc2ccc(-c3cccc(C(=O)O)c3)o2)C(=O)N(C)C1=O` [PTF-44], the pIC50 on G119S AChE1 and on WT AChE1 was 6.22 in each case. Also, the “Mortality at 300 µM, Slab” value in series [1] was found to be 0%. In addition, the “Mortality at 300 µM, SR” value in series [2] is listed as 0%.
As to `CC(=O)c1ccc(-c2ccc(C=C3C(=O)N(C)C(=O)N(C)C3=O)o2)cc1` [PTF-45], the values for the pIC50 at G119S AChE1 and on WT AChE1 were 5.96 and 5.47, respectively. The “Mortality at 300 µM, Slab” value in series [1] worked out at 0%. The “Mortality at 300 µM, SR” value in series [2] worked out at 0%.
For the compound `CN1C(=O)C(=Cc2ccc(-c3ccc(S(N)(=O)=O)cc3)o2)C(=O)N(C)C1=O` [PTF-46], the figures for the pIC50 at G119S AChE1 and at WT AChE1 were 5.28 and 5.77, respectively. The “Mortality at 300 µM, Slab” value in series [1] is given as 0%. In series [2], the “Mortality at 300 µM, SR” value was 0%.
With `CN1C(=O)C(=Cc2ccc(Sc3ccccc3)o2)C(=O)N(C)C1=O` [PTF-47], the values for the pIC50 on G119S AChE1 and at WT AChE1 were 5.89 and 5.52, respectively. The “Mortality at 300 µM, Slab” value in series [1] was determined as 0%. Moreover, the “Mortality at 300 µM, SR” value in series [2] was determined as 0%.
Regarding `CN1C(=O)C(=Cc2ccc(N3CCCC3)o2)C(=O)N(C)C1=O` [PTF-48], the pIC50 is 2.82 on G119S AChE1 and 3.12 at WT AChE1. Further, the “Mortality at 300 µM, Slab” value in series [1] stood at 0%. In addition, the “Mortality at 300 µM, SR” value in series [2] is reported as 0%.
Turning to `CN1C(=O)C(=Cc2ccc(N3CCCCC3)o2)C(=O)N(C)C1=O` [PTF-49], the pIC50 on G119S AChE1 is 4.18; at WT AChE1, 4.01. Besides, the “Mortality at 300 µM, Slab” value in series [1] is given as 13%. In addition, in series [2], the “Mortality at 300 µM, SR” value was determined as 0%.
The corresponding values for `CN1C(=O)C(=Cc2ccc(N3CCOCC3)o2)C(=O)N(C)C1=O` [PTF-50] are 3.84, 3.59, 0% and 0%.
Take `CN1CCN(c2ccc(C=C3C(=O)N(C)C(=O)N(C)C3=O)o2)CC1` [PTF-52]: the pIC50 at G119S AChE1 is 4.28; at WT AChE1, 3.07. Also, the “Mortality at 300 µM, Slab” value in series [1] was 0%. Moreover, the “Mortality at 300 µM, SR” value in series [2] was 0%.
In the case of `CN1C(=O)C(=Cc2ccc(-c3ccc4c(c3)COC4=O)o2)C(=O)N(C)C1=O` [PTF-53], the values for the pIC50 at G119S AChE1 and at WT AChE1 were 5.25 and 6.22, respectively. The “Mortality at 300 µM, Slab” value in series [1] was 0%. The “Mortality at 300 µM, SR” value in series [2] stood at 0%.
Regarding `O=C1NC(=O)N(c2ccccc2)C(=O)C1=Cc1ccco1` [PTF-54], the pIC50 on G119S AChE1 was 3.13; at WT AChE1 it was 2.86. The “Mortality at 300 µM, Slab” value in series [1] stood at 100%. In addition, in series [2], the “Mortality at 300 µM, SR” value is reported as 100%.
As to `O=C1NC(=O)N(c2ccccc2)C(=O)C1=Cc1ccc(Br)o1` [PTF-55], the pIC50 was 4.49 at G119S AChE1 and 4.77 on WT AChE1. Besides, the “Mortality at 300 µM, Slab” value in series [1] is 0%. Further, in series [2], the “Mortality at 300 µM, SR” value amounted to 0%.
Turning to `CCOC(=O)c1ccc(-c2ccc(C=C3C(=O)NC(=O)N(c4ccccc4)C3=O)o2)cc1` [PTF-56], the pIC50 is 5.72 on G119S AChE1 and 5.31 at WT AChE1. Further, in series [1], the “Mortality at 300 µM, Slab” value is listed as 0%. Moreover, the “Mortality at 300 µM, SR” value in series [2] is listed as 0%.
In the case of `O=C1NC(=O)N(c2ccccc2)C(=O)C1=Cc1ccc(-c2ccc(C(=O)O)cc2)o1` [PTF-57], the pIC50 at G119S AChE1 is 5.27; on WT AChE1 it was 4.95. The “Mortality at 300 µM, Slab” value in series [1] turned out to be 0%. In addition, the “Mortality at 300 µM, SR” value in series [2] came out at 0%.
As for `O=C1NC(=O)N(c2ccccc2)C(=O)C1=Cc1ccc(-c2cccc(C(=O)O)c2)o1` [PTF-58], the pIC50 was 5.03 at G119S AChE1 and 5.17 on WT AChE1. The “Mortality at 300 µM, Slab” value in series [1] came to 0%. Further, in series [2], the “Mortality at 300 µM, SR” value is on record as 0%.
